Where a name gives a salt, the structure may show the parent alone.
The molecules below were run against histidine-tagged recombinant human TrkA, cytoplasmic domain (Homo sapiens (Human), UniProt P04629) (assay: TrkA ELISA Assay). Details: 2.5 nM TrkA, 500 μM ATP, 25 minutes; read-out: TrkA Elisa Enzyme IC50.
Assay type: biochemical
Experimental: An enzyme-linked immunosorbant assay (ELISA) was used to assess TrkA kinase activity in the presence of inhibitors. Immulon 4HBX 384-well microtiter plates (Thermo part #8755) were coated with a 0.025 mg/mL solution of poly (Glu, Ala, Tyr; 6:3:1; Sigma P3899). Various concentrations of test compound, 2.5 nM TrkA (Invitrogen Corp., histidine-tagged recombinant human TrkA, cytoplasmic domain), and 500 μM ATP were incubated for 25 minutes at ambient temperature in the coated plates while shaking. The assay buffer consisted of 25 mM MOPS pH 7.5, 0.005% (v/v) Triton X-100 and 5 mM MgCl2. The reaction mixture was removed from the plate by washing with PBS containing 0.1% (v/v) Tween 20. The phosphorylated reaction product was detected using 0.2 μg/mL of a phosphotyrosine specific monoclonal antibody (clone PY20) conjugated to horseradish peroxidase in conjunction with the TMB Peroxidase Substrate System (KPL). After the addition of 1M phosphoric acid, the chromogenic substrate color intensity was quantitated via absorbance at 450 nm. IC50 values were calculated using either a 4 or 5-parameter logistic curve fit.

Sequence of histidine-tagged recombinant human TrkA, cytoplasmic domain (P04629 440-796): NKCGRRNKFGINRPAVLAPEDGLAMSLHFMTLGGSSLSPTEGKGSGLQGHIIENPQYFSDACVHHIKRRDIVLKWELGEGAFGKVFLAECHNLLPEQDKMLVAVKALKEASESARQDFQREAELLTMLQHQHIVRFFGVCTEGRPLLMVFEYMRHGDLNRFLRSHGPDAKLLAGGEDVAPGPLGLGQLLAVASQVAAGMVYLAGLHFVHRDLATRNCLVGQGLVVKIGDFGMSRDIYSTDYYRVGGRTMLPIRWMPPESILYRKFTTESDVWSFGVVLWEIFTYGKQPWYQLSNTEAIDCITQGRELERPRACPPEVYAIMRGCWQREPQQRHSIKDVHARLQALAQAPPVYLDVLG

IC50 | Structure (SMILES)
7.65 nM | COC(=O)C(=O)Nc1cnn2ccc(N3CCC[C@@H]3c3cc(F)ccc3F)nc12 [Example 104, (R)-methyl 2-(5-(2-(2,5-difluorophenyl)pyrrolidin-1-yl)pyrazolo[1,5-a]pyrimidin-3-ylamino)-2-oxoacetate]
28.3 nM | O=C(Nc1cnn2ccc(N3CCC[C@@H]3c3cc(F)ccc3Cl)nc12)N1CCC(O)CC1 [Example 42, (R)—N-(5-(2-(2-chloro-5-fluorophenyl)pyrrolidin-1-yl)pyrazolo[1,5-a]pyrimidin-3-yl)-4-hydroxypiperidine-1-carboxamide]
20.3 nM | O=C(Nc1cnn2ccc(N3CCC[C@@H]3c3cc(F)ccc3F)nc12)[C@H]1CC[C@@H](O)C1 [Example 94, (1S,3R)—N-(5-((R)-2-(2,5-difluorophenyl)pyrrolidin-1-yl)pyrazolo[1,5-a]pyrimidin-3-yl)-3-hydroxycyclopentanecarboxamide]
4.65 nM | NC(=O)C(=O)Nc1cnn2ccc(N3CCC[C@@H]3c3cc(F)ccc3F)nc12 [Example 99, (R)—N^1-(5-(2-(2,5-difluorophenyl)pyrrolidin-1-yl)pyrazolo[1,5-a]pyrimidin-3-yl)oxalamide]
14.4 nM | CC(C)(C(=O)Nc1cnn2ccc(N3CCC[C@@H]3c3cc(F)ccc3F)nc12)n1cncn1 [Example 56, (R)—N-(5-(2-(2,5-difluorophenyl)pyrrolidin-1-yl)pyrazolo[1,5-a]pyrimidin-3-yl)-2-methyl-2-(1H-1,2,4-triazol-1-yl)propanamide]
41.7 nM | O=C(Nc1cnn2ccc(N3CCC[C@@H]3c3cc(F)ccc3Cl)nc12)N1CCOCC1 [Example 23, (R)—N-(5-(2-(2-chloro-5-fluorophenyl)pyrrolidin-1-yl)pyrazolo[1,5-a]pyrimidin-3-yl)morpholine-4-carboxamide]
16.5 nM | O=C(Nc1cnn2ccc(N3CCC[C@@H]3c3cc(F)ccc3F)nc12)C1(O)CC1 [Example 65, (R)—N-(5-(2-(2,5-difluorophenyl)pyrrolidin-1-yl)pyrazolo[1,5-a]pyrimidin-3-yl)-1-hydroxycyclopropanecarboxamide]
10.1 nM | O=C(Nc1ccc(Cl)cc1)Nc1cnn2ccc(N3CCC[C@@H]3c3cc(F)ccc3F)nc12 [Example 19, (R)-1-(4-chlorophenyl)-3-(5-(2-(2,5-difluorophenyl)pyrrolidin-1-yl)pyrazolo[1,5-a]pyrimidin-3-yl)urea]
3.1 nM | Cc1cnc(C(=O)Nc2cnn3ccc(N4CCC[C@@H]4c4cc(F)ccc4F)nc23)cn1 [Example 58, (R)—N-(5-(2-(2,5-difluorophenyl)pyrrolidin-1-yl)pyrazolo[1,5-a]pyrimidin-3-yl)-5-methylpyrazine-2-carboxamide]
116 nM | O=C(Nc1cnn2ccc(N3CCC[C@@H]3c3cccc(F)c3)nc12)N1CC(O)C1 [Example 32, (R)—N-(5-(2-(3-fluorophenyl)pyrrolidin-1-yl)pyrazolo[1,5-a]pyrimidin-3-yl)-3-hydroxyazetidine-1-carboxamide]
35.4 nM | Cn1ccnc1C(=O)Nc1cnn2ccc(N3CCC[C@@H]3c3cccc(F)c3)nc12 [Example 83, (R)—N-(5-(2-(3-fluorophenyl)pyrrolidin-1-yl)pyrazolo[1,5-a]pyrimidin-3-yl)-1-methyl-1H-imidazole-2-carboxamide]
156 nM | O=C(Nc1cnn2ccc(N3CCC[C@@H]3c3cncc(F)c3)nc12)N1CC[C@H](O)C1 [Example 88, (S)—N-(5-((R)-2-(5-fluoropyridin-3-yl)pyrrolidin-1-yl)pyrazolo[1,5-a]pyrimidin-3-yl)-3-hydroxypyrrolidine-1-carboxamide]
4.6 nM | O=C(Nc1ccc(F)cc1)Nc1cnn2ccc(N3CCC[C@@H]3c3cc(F)ccc3F)nc12 [Example 18, (R)-1-(5-(2-(2,5-difluorophenyl)pyrrolidin-1-yl)pyrazolo[1,5-a]pyrimidin-3-yl)-3-(4-fluorophenyl)urea]
4 nM | O=C(Nc1cnn2ccc(N3CCC[C@@H]3c3cc(F)ccc3F)nc12)c1ccc(Cl)cn1 [Example 61, (R)-5-chloro-N-(5-(2-(2,5-difluorophenyl)pyrrolidin-1-yl)pyrazolo[1,5-a]pyrimidin-3-yl)picolinamide]
53.3 nM | O=C(Nc1cnn2ccc(N3CCC[C@@H]3c3cccc(F)c3)nc12)c1cccnc1 [Example 76, (R)—N-(5-(2-(3-fluorophenyl)pyrrolidin-1-yl)pyrazolo[1,5-a]pyrimidin-3-yl)nicotinamide]
27.9 nM | COC1CN(C(=O)Nc2cnn3ccc(N4CCC[C@@H]4c4cc(F)ccc4Cl)nc23)C1 [Example 21, (R)—N-(5-(2-(2-chloro-5-fluorophenyl)pyrrolidin-1-yl)pyrazolo[1,5-a]pyrimidin-3-yl)-3-methoxyazetidine-1-carboxamide]
107 nM | O=C(Nc1cnn2ccc(N3CCC[C@@H]3c3cc(F)ccc3F)nc12)N1C[C@@H]2C[C@H]1CO2 [Example 92, (1S,4S)—N-(5-((R)-2-(2,5-difluorophenyl)pyrrolidin-1-yl)pyrazolo[1,5-a]pyrimidin-3-yl)-2-oxa-5-azabicyclo[2.2.1]heptane-5-carboxamide]
47 nM | Cc1ccc(C(=O)Nc2cnn3ccc(N4CCC[C@@H]4c4cccc(F)c4)nc23)cn1 [Example 78, (R)—N-(5-(2-(3-fluorophenyl)pyrrolidin-1-yl)pyrazolo[1,5-a]pyrimidin-3-yl)-6-methylnicotinamide]
4.7 nM | COC(=O)C1(C(=O)Nc2cnn3ccc(N4CCC[C@@H]4c4cc(F)ccc4F)nc23)CC1 [Example 33, (R)-methyl 1-(5-(2-(2,5-difluorophenyl)pyrrolidin-1-yl)pyrazolo[1,5-a]pyrimidin-3-ylcarbamoyl)cyclopropanecarboxylate]
88.3 nM | C[C@H]1CN(C(=O)Nc2cnn3ccc(N4CCC[C@@H]4c4cc(F)ccc4F)nc23)CCN1 [Example 31, (S)—N-(5-((R)-2-(2,5-difluorophenyl)pyrrolidin-1-yl)pyrazolo[1,5-a]pyrimidin-3-yl)-3-methylpiperazine-1-carboxamide hydrochloride]
47.5 nM | CN(C)C(=O)C(=O)Nc1cnn2ccc(N3CCC[C@@H]3c3cc(F)ccc3F)nc12 [Example 97, (R)—N^1-(5-(2-(2,5-difluorophenyl)pyrrolidin-1-yl)pyrazolo[1,5-a]pyrimidin-3-yl)-N^2,N^2-dimethyloxalamide]
55 nM | C[C@H]1CN(C(=O)Nc2cnn3ccc(N4CCC[C@@H]4c4cc(F)ccc4Cl)nc23)CCN1C(=O)OC(C)(C)C [Example 24, (S)-tert-butyl 4-(5-((R)-2-(2-chloro-5-fluorophenyl)pyrrolidin-1-yl)pyrazolo[1,5-a]pyrimidin-3-ylcarbamoyl)-2-methylpiperazine-1-carboxylate]
4 nM | O=C(Nc1cnn2ccc(N3CCC[C@@H]3c3cccc(F)c3)nc12)c1ccccn1 [Example 68, (R)—N-(5-(2-(3-fluorophenyl)pyrrolidin-1-yl)pyrazolo[1,5-a]pyrimidin-3-yl)picolinamide]
3 nM | O=C(Nc1cnn2ccc(N3CCC[C@@H]3c3cc(F)ccc3F)nc12)c1ncccn1 [Example 67, (R)—N-(5-(2-(2,5-difluorophenyl)pyrrolidin-1-yl)pyrazolo[1,5-a]pyrimidin-3-yl)pyrimidine-2-carboxamide]

Reference: patent publication US8865698B2, “Method of treatment using substituted pyrazolo[1,5-a]pyrimidine compounds” (Array BioPharma Inc., priority 2008, dated 2014)
